Laboratory results reported in patent US20170314074A1, “LPA-ASSOCIATED PROTEIN AND RNA EXPRESSION” (Intermune, Inc., priority 2014, published 2017).

Legend:
[1] = test system: fibroblasts and/or epithelial cells; assay: mRNA expression after LPA induction, Affymetrix Human Gene ST arrays, fibroblasts and/or epithelial cells (Table 3); type: cell-based
Description: (§1) Changes in gene expression after 3 hours of LPA induction were profiled on Affymetrix Human Gene ST 2.0 microarrays; differentially expressed genes identified by ANOVA with FDR <0.05 and fold-change >1.2. Process networks associated with differentially expressed genes were defined using MetaCore. Changes in secreted protein expression after 24 hours of LPA induction were profiled on an aptamer-based proteomic platform (1129 proteins); differentially expressed proteins identified by t-test.
(§2) Total RNA was isolated from normal human lung fibroblasts, human bronchial epithelial cells, and human pulmonary alveolar epithelial cells treated for […] with LPA and/or LPAR1 inhibitor. Each treatment condition was assayed in triplicate. Samples were profiled on Affymetrix Human Gene ST Arrays 1.0 and/or 2.0 after preparation using the Ambion WT Expression Kit according to manufacturers' instructions.
Data normalization and all subsequent analyses were performed in Partek Genomics Suite (Partek, St. Louis, Mo.). Data were normalized using the Robust Multi-array Average (RMA) algorithm. Differentially expressed genes were identified by ANOVA with correction for multiple comparisons with p-value with FDR<0.05. A fold-change cut-off was not strictly applied, although the majority of the differentially expressed genes identified have fold-changes greater than 1.2. […]

[2] = test system: normal human lung fibroblasts; assay: mRNA expression after LPA induction, Affymetrix Human Gene ST arrays, fibroblasts (Table 4A); type: cell-based; details: fibroblasts; 1 μM LPA; average of 3 experiments
Description: as §1, §2
Data normalization and all subsequent analyses were performed in Partek Genomics Suite (Partek, St. Louis, Mo.). Data were normalized using the Robust Multi-array Average (RMA) algorithm. Differentially expressed genes were identified by ANOVA with correction for multiple comparisons with p-value with FDR<0.05. A fold-change cut-off was not strictly applied, although the majority of the differentially expressed genes identified have fold-changes greater than 1.2. Genes were included if they were statistically significant for (1) LPA-induction and (2) response to treatment with an LPAR1 inhibitor.
In Tables 1-5 The differentially expressed secreted proteins set forth in Tables 1, 2, and 5 and the differentially expressed mRNAs set forth in Table 3 and 4 were identified by visual inspection of individual dot-plots.
For the gene and protein expression analysis primary fibroblasts (NHLF product #CC-2512 from Lonza group LTD) and primary epithelial cells (NHBE Product #CC-2540 from Lonza; HPAEpiC Product #3200 from Sciencell (USA, California)) were cultured as recommended by the manufacturer, except they were cultured on collagen coated plates. As part of the induction protocol cells were starved overnight in low (0.2 or 0.1% serum) or no serum (0%), prior to stimulation with LPA.

## lysophosphatidic acid [LPA]
[1]
  changes in gene expression induced by LPA: induced significant changes in gene expression
[2]
  Effect of 1 μM LPA (fold-change), BIRC3 mRNA: 3.17 fold-change
  Effect of 1 μM LPA (fold-change), CHIC2 mRNA: 2.36 fold-change
  Effect of 1 μM LPA (fold-change), CNST mRNA: 2.26 fold-change
  Effect of 1 μM LPA (fold-change), CTGF mRNA: 4.71 fold-change
  Effect of 1 μM LPA (fold-change), CYR61 mRNA: 6.52 fold-change
  Effect of 1 μM LPA (fold-change), DKK1 mRNA: 6.36 fold-change
  Effect of 1 μM LPA (fold-change), DUSP1 mRNA: 2.76 fold-change
  Effect of 1 μM LPA (fold-change), EFNB2 mRNA: 2.61 fold-change
  Effect of 1 μM LPA (fold-change), GPR37 mRNA: 2.80 fold-change
  Effect of 1 μM LPA (fold-change), HAS2 mRNA: 2.61 fold-change
  Effect of 1 μM LPA (fold-change), HBEGF mRNA: 5.11 fold-change
  Effect of 1 μM LPA (fold-change), IER3 mRNA: 2.94 fold-change
  Effect of 1 μM LPA (fold-change), IL6 mRNA: 4.19 fold-change
  Effect of 1 μM LPA (fold-change), KPRP mRNA: 4.31 fold-change
  Effect of 1 μM LPA (fold-change), KRTAP1-5 mRNA: 6.49 fold-change
  Effect of 1 μM LPA (fold-change), KRTAP4-12 mRNA: 3.23 fold-change
  Effect of 1 μM LPA (fold-change), LIF mRNA: 5.15 fold-change
  Effect of 1 μM LPA (fold-change), MCP-1/CCL2 mRNA: 5.58 fold-change
  Effect of 1 μM LPA (fold-change), MIR218-1: 3.07 fold-change
  Effect of 1 μM LPA (fold-change), PAI-1 mRNA: 2.28 fold-change
  Effect of 1 μM LPA (fold-change), PDCD1LG2 mRNA: 2.52 fold-change
  Effect of 1 μM LPA (fold-change), PTX3 mRNA: 2.34 fold-change
  Effect of 1 μM LPA (fold-change), SERPINB2 mRNA: 2.44 fold-change
  Effect of 1 μM LPA (fold-change), TNFAIP3 mRNA: 3.44 fold-change
  Effect of 1 μM LPA (fold-change), TXNIP mRNA: −3.79 fold-change
  Effect of 1 μM LPA (fold-change), UGCG mRNA: 2.41 fold-change
  Effect of 1 μM LPA (fold-change), VGLL3 mRNA: 2.96 fold-change
